Data as given in patent US10118902B2 (Sanford Burnham Prebys Medical Discovery Institute, priority 2014, dated 2018).

Molecular target: neurotensin receptor 1 (NTR1) (Homo sapiens (Human), UniProt P30989)
Assay: NTR1 dose response, high-content imaging beta-arrestin-GFP assay in NTR1-U2OS cells
Format: cell-based
Conditions: read-out: EC50

Sequence of neurotensin receptor 1 (NTR1) (P30989 whole entry, species assumed): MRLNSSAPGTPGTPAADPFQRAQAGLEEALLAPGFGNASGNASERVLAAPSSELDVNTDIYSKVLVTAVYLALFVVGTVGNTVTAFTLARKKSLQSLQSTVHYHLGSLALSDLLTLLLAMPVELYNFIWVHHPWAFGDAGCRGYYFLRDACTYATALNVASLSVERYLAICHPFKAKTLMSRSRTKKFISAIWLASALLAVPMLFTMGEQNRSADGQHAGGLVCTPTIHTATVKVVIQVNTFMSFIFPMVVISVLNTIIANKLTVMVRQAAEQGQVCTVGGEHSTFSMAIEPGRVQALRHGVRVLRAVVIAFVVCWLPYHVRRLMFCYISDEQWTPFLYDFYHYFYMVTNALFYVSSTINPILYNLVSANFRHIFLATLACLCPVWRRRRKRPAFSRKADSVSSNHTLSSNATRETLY

First: COC1CCCC1N1CCN(c2nc(C3CC3)nc3ccc(N(C)CCO)cc23)CC1 (stereo not shown) [Example 184, 2-({2-Cyclopropyl-4-[4-(2-methoxy-cyclopentyl)-piperazin-1-yl]-quinazolin-6-yl}-methyl-amino)-ethanol]
Second: CN(CCO)c1ccc2nc(C3CC3)nc(N3CCC(c4ccccc4N4CCC4)CC3)c2c1 [Example 6, 2-({4-[4-(2-azetidin-1-yl-phenyl)-piperidin-1-yl]-2-cyclopropyl-quinazolin-6-yl}-methyl-amino)-ethanol]
The EC50 of the first is higher: over 10000 nM for the first, 500 to 2000 nM for the second.

`CN(C)CCN(C)c1ccc2nc(C3(C)CC3)nc(N3CCC(c4ccccc4N(C)C)CC3)c2c1` [Example 28, N-[4-[4-(2-dimethylamino-phenyl)-piperidin-1-yl]-2-(1-methyl-cyclopropyl)-quinazolin-6-yl]-N,N′,N′-trimethyl-ethane-1,2-diamine] and `COCCN(C)c1ccc2nc(C3(C)CC3)nc(N3CCC(c4ccccc4N(C)C)CC3)c2c1` [Example 26, [4-[4-(2-dimethylamino-phenyl)-piperidin-1-yl]-2-(1-methyl-cyclopropyl)-quinazolin-6-yl]-(2-methoxy-ethyl)-methyl-amine] cannot be ordered by EC50: over 10000 nM for the first, over 10000 nM for the second.

`CCCN(C)C(=O)Cc1cnc(C2CC2)nc1N1CCC(c2ccccc2OC)CC1` [Example 165, 2-{2-cyclopropyl-4-[4-(2-methoxy-phenyl)-piperidin-1-yl]-pyrimidin-5-yl}-N-methyl-N-propyl-acetamide] and `CCCN(C)C(=O)Cc1c(C)nc(N2CCC(c3ccccc3OC)CC2)nc1C1CC1` [Example 162, 2-{4-cyclopropyl-2-[4-(2-methoxy-phenyl)-piperidin-1-yl]-6-methyl-pyrimidin-5-yl}-N-methyl-N-propyl-acetamide] cannot be ordered by EC50: over 10000 nM for the first, over 10000 nM for the second.

`COc1ccccc1C1CCN(c2nc(C3(F)CC3)nc3ccc(N4CC[C@@H](O)C4)cc23)CC1` [Example 178, (R)-1-{2-(1-Fluoro-cyclopropyl)-4-[4-(2-methoxy-phenyl)-piperidin-1-yl]-quinazolin-6-yl}-pyrrolidin-3-ol] and `COc1ccccc1C1CCN(c2nc(C3CC3)nc3ccc(N4CCC(O)C4)cc23)CC1` (stereo not shown) [Example 79, 1-{2-cyclopropyl-4-[4-(2-methoxy-phenyl)-piperidin-1-yl]-quinazolin-6-yl}-pyrrolidin-3-ol] fall in the same range of EC50: 500 to 2000 nM for the first, 500 to 2000 nM for the second.

First: COc1cccnc1C1CCN(c2nc(C3(F)CC3)nc3ccc(N(C)CCO)cc23)CC1 [Example 206, 2-{[2-(1-Fluoro-cyclopropyl)-4-(3-methoxy-3′,4′,5′,6′-tetrahydro-2′H-[2,4′]bipyridinyl-1′-yl)-quinazolin-6-yl]-methyl-amino}-ethanol]
Second: COc1cc(I)ccc1C1CCN(c2nc(C3(F)CC3)nc3ccc(N(C)CCO)cc23)CC1 [Example 218]
The EC50 of the first is lower: 500 to 2000 nM for the first, over 10000 nM for the second. The first is the more potent here.

Compared with `CCOC(=O)CN(CC(=O)OCC)C1CCN(c2ccc3nc(C4CC4)nc(N4CCC(c5ccccc5OC)CC4)c3c2)CC1` [Example 92], `COc1ccccc1C1CCN(c2nc(C3CC3)nc3ccc(N4CCC(OC)CC4)cc23)CC1` [Example 77] is lower in EC50: over 10000 nM for the first, 2000 to 10000 nM for the second.

First: COc1ccccc1C1CCN(c2nc(C3(F)CCC3)nc3c(Cl)cc(N4CC[C@@H](O)C4)cc23)CC1 [Example 182]
Second: COc1ccccc1C1CCN(c2nc(C3CC3)nc3ccc(N4CC[C@@H](O)C4)cc23)CC1 [Example 175, (R)-1-{2-cyclopropyl-4-[4-(2-methoxy-phenyl)-piperidin-1-yl]-quinazolin-6-yl}-pyrrolidin-3-ol]
The EC50 of the first is higher: 2000 to 10000 nM for the first, 500 to 2000 nM for the second. The second is the more potent here.

`CCCN(C)c1ccc2nc(C3(F)CC3)nc(N3CCC(c4ccccc4OC)CC3)c2c1` [Example 20, {2-(1-fluoro-cyclopropyl)-4-[4-(2-methoxy-phenyl)-piperidin-1-yl]-quinazolin-6-yl}-methyl-propyl-amine] and `COc1ccccc1C1CCN(c2nc(C3(F)CC3)nc3ccc(N(C)C)cc23)CC1` [Example 18, {2-(1-fluoro-cyclopropyl)-4-[4-(2-methoxy-phenyl)-piperidin-1-yl]-quinazolin-6-yl}-dimethyl-amine] fall in the same range of EC50: 500 to 2000 nM for the first, 500 to 2000 nM for the second.

First: COc1ccccc1C1CCN(c2nc(C3CC3)nc3ccc(N(C)CC(=O)O)cc23)CC1 [Example 179, ({2-Cyclopropyl-4-[4-(2-methoxy-phenyl)-piperidin-1-yl]-quinazolin-6-yl}-methyl-amino)-acetic acid]
Second: COc1ccccc1C1CCN(c2nc(C3CCCC3)nc3ccc(N(C)CCO)cc23)CC1 [Example 38, 2-({2-cyclopentyl-4-[4-(2-methoxy-phenyl)-piperidin-1-yl]-quinazolin-6-yl}-methyl-amino)-ethanol]
The EC50 of the first is lower: under 500 nM for the first, 2000 to 10000 nM for the second.

`CN(CCN1CCCC1)c1ccc2nc(C3(C)CC3)nc(N3CCC(c4ccccc4N4CCC4)CC3)c2c1` [Example 36, [4-[4-(2-azetidin-1-yl-phenyl)-piperidin-1-yl]-2-(1-methyl-cyclopropyl)-quinazolin-6-yl]-methyl-(2-pyrrolidin-1-yl-ethyl)-amine] and `CN(CCN1CCOCC1)c1ccc2nc(C3(C)CC3)nc(N3CCC(c4ccccc4N4CCC4)CC3)c2c1` [Example 32, [4-[4-(2-azetidin-1-yl-phenyl)-piperidin-1-yl]-2-(1-methyl-cyclopropyl)-quinazolin-6-yl]-methyl-(2-morpholin-4-yl-ethyl)-amine] cannot be ordered by EC50: over 10000 nM for the first, over 10000 nM for the second.

`CN(C)c1ccccc1C1CCN(c2nc(C3CC3)nc3ccc(N(C)CCN4CCOCC4)cc23)CC1` [Example 12, {2-Cyclopropyl-4-[4-(2-dimethylamino-phenyl)-piperidin-1-yl]-quinazolin-6-yl}-methyl-(2-morpholin-4-yl-ethyl)-amine] and `CN(C)c1ccccc1C1CCN(c2nc(C3(C)CCCC3)nc3ccc(N(C)CCN4CCOCC4)cc23)CC1` [Example 54, [4-[4-(2-dimethylamino-phenyl)-piperidin-1-yl]-2-(1-methyl-cyclopentyl)-quinazolin-6-yl]-methyl-(2-morpholin-4-yl-ethyl)-amine] fall in the same range of EC50: 2000 to 10000 nM for the first, 2000 to 10000 nM for the second.

First: COc1ccccc1C1CCN(c2nc(C3CC3)nc3cnc(N(C)CCN4CCOCC4)cc23)CC1 [Example 194, 2-cyclopropyl-4-(4-(2-methoxyphenyl)piperidin-1-yl)-N-methyl-N-(2-morpholinoethyl)pyrido[3,4-d]pyrimidin-6-amine]
Second: COc1ccccc1C1CCN(c2nc(C3CC3)nc3c(N(C)CCN4CCOCC4)cccc23)CC1 [Example 129, {2-cyclopropyl-4-[4-(2-methoxy-phenyl)-piperidin-1-yl]-quinazolin-8-yl}-methyl-(2-morpholin-4-yl-ethyl)-amine]
The EC50 of the first is lower: 500 to 2000 nM for the first, over 10000 nM for the second.

`COc1nccnc1C1CCN(c2nc(C3(C)CC3)nc3c(F)cc(N(C)CCO)cc23)CC1` [Example 204, 2-{[8-Fluoro-4-[4-(3-methoxy-pyrazin-2-yl)-piperidin-1-yl]-2-(1-methyl-cyclopropyl)-quinazolin-6-yl]-methyl-amino}-ethanol] and `COc1nccnc1C1CCN(c2nc(C3(F)CC3)nc3c(F)cc(N(C)CCO)cc23)CC1` [Example 213, 2-({8-Fluoro-2-(1-fluoro-cyclopropyl)-4-[4-(3-methoxy-pyrazin-2-yl)-piperidin-1-yl]-quinazolin-6-yl}-methyl-amino)-ethanol] fall in the same range of EC50: 500 to 2000 nM for the first, 500 to 2000 nM for the second.

`CCCN(C)c1ccc2nc(C3CC3)nc(NC3CCCC3N(C)c3ccccc3OC)c2c1` (stereo not shown) [Example 152, 2-cyclopropyl-N4-{2-[(2-methoxy-phenyl)-methyl-amino]-cyclopentyl}-N6-methyl-N6-propyl-quinazoline-4,6-diamine] and `CCCN(C)c1ccc2nc(C3CC3)nc(NC3CCN(c4ccccc4OC)C3)c2c1` (stereo not shown) [Example 155, 2-cyclopropyl-N4-(1-(2-methoxyphenyl)pyrrolidin-3-yl)-N6-methyl-N6-propylquinazoline-4,6-diamine] cannot be ordered by EC50: over 10000 nM for the first, over 10000 nM for the second.

First: COc1cc(F)ccc1C1CCN(c2nc(C3CC3)nc3cc(F)c(N(C)CCO)cc23)CC1 [Example 110, 2-({2-cyclopropyl-7-fluoro-4-[4-(4-fluoro-2-methoxy-phenyl)-piperidin-1-yl]-quinazolin-6-yl}-methyl-amino)-ethanol]
Second: COc1ccsc1C1CCN(c2nc(C3CC3)nc3ccc(N(C)CCO)cc23)CC1 [Example 190, 2-({2-Cyclopropyl-4-[4-(3-methoxy-thiophen-2-yl)-piperidin-1-yl]-quinazolin-6-yl}-methyl-amino)-ethanol]
The EC50 of the first is lower: 500 to 2000 nM for the first, 2000 to 10000 nM for the second.

`CCCN(C)c1ccc2c(N3CCC(c4ccccc4OC)CC3)nc(C3CC3)nc2c1` [Example 135, 2-cyclopropyl-4-(4-(2-methoxyphenyl)piperidin-1-yl)-N-methyl-N-propylquinazolin-7-amine] and `CCCN(C)c1ccc2nc(C3CCCC3)nc(N3CCC(c4ccccc4OC)CC3)c2c1` [Example 40] cannot be ordered by EC50: over 10000 nM for the first, over 10000 nM for the second.

First: COc1ccccc1C1CCN(c2nc(C3(C(F)(F)F)CCC3)nc3ccc(N(C)CCN4CCOCC4)cc23)CC1 [Example 64, [4-[4-(2-methoxy-phenyl)-piperidin-1-yl]-2-(1-trifluoromethyl-cyclobutyl)-quinazolin-6-yl]-methyl-(2-morpholin-4-yl-ethyl)-amine]
Second: COc1ccccc1C1CCN(c2nc(C3(C(F)(F)F)CC3)nc3ccc(N(C)CCO)cc23)CC1 [Example 47, 2-{[4-[4-(2-methoxy-phenyl)-piperidin-1-yl]-2-(1-trifluoromethyl-cyclopropyl)-quinazolin-6-yl]-methyl-amino}-ethanol]
The EC50 of the first is higher: over 10000 nM for the first, under 500 nM for the second.

First: COc1cccnc1N1CCN(c2nc(C3(F)CC3)nc3c(F)cc(N(C)CCO)cc23)CC1 [Example 215, 2-({8-Fluoro-2-(1-fluoro-cyclopropyl)-4-[4-(3-methoxy-pyridin-2-yl)-piperazin-1-yl]-quinazolin-6-yl}-methyl-amino)-ethanol]
Second: COc1cccc2c1CN(c1nc(C3CC3)nc3ccc(N(C)CCO)cc13)C2 [Example 149, 2-{[2-cyclopropyl-4-(4-methoxy-1,3-dihydro-isoindol-2-yl)-quinazolin-6-yl]-methyl-amino}-ethanol]
The EC50 of the first is lower: 500 to 2000 nM for the first, over 10000 nM for the second. The first is the more potent here.

Compound `CN(C)c1ccccc1C1CCN(c2nc(C3(C)CC3)nc3ccc(N(C)CCN4CCCC4)cc23)CC1` [Example 29, [4-[4-(2-dimethylamino-phenyl)-piperidin-1-yl]-2-(1-methyl-cyclopropyl)-quinazolin-6-yl]-methyl-(2-pyrrolidin-1-yl-ethyl)-amine] has an EC50 of over 10000 nM.
